Results published in ChEMBL document CHEMBL1201862, “PubChem BioAssay data set” (2004).
The source made the active and inactive calls.

Columns and labels:
[1] = target: Induced myeloid leukemia cell differentiation protein Mcl-1 (Homo sapiens, UniProt Q07820); assay type: functional
[2] = target: T1, Polyadenylate-binding protein 1 (Homo sapiens, UniProt P11940); test: MLLE binding blockers, Cy5 peptide tracer – biochemical, fluorescence polarization, Cy5-PAM2 peptide, secondary, miRNA deadenylation inhibitor project, dose response (AID 602260); assay type: functional; settings: read-out: IC50_Mean
T1 sequence (P11940 whole entry, the tested form may be a part): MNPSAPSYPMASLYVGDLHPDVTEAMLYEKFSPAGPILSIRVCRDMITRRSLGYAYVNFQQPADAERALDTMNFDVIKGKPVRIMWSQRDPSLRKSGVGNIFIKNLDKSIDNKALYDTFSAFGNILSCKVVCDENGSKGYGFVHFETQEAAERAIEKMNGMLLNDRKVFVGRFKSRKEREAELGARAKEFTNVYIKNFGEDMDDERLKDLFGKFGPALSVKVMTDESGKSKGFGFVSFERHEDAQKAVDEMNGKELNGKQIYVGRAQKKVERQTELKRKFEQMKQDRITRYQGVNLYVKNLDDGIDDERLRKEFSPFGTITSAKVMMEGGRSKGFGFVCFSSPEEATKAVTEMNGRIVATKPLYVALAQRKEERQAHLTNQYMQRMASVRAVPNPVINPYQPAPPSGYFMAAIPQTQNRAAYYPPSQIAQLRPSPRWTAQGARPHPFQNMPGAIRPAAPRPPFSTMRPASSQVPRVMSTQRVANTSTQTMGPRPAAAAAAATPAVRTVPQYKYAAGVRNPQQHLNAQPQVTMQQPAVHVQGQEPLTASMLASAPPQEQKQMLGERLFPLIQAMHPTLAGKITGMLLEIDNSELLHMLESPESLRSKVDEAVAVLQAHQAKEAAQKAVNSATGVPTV

[3] = target: T1, Polyadenylate-binding protein 1; test: MLLE domain peptide-binding blockers, IC50 – biochemical, fluorescence polarization, FITC-PAM2 peptide, dose response (AID 602259); assay type: functional; settings: read-out: IC50_Mean
Prothrombin = Prothrombin (Homo sapiens, UniProt P00734); test: Thrombin 1536 HTS Dose Response Confirmation. [Related pubchem assays: 1046 (Thrombin 1536 HTS; hits were confirmed in this assay)]; assay type: functional
[4] = target: T2, Mannose-6-phosphate isomerase (Homo sapiens, UniProt P34949); test: MPI inhibition at elevated mannose 6-phosphate – biochemical, fluorescence intensity, high mannose 6-phosphate, primary screen (AID 1220)
T2 sequence (P34949 whole entry): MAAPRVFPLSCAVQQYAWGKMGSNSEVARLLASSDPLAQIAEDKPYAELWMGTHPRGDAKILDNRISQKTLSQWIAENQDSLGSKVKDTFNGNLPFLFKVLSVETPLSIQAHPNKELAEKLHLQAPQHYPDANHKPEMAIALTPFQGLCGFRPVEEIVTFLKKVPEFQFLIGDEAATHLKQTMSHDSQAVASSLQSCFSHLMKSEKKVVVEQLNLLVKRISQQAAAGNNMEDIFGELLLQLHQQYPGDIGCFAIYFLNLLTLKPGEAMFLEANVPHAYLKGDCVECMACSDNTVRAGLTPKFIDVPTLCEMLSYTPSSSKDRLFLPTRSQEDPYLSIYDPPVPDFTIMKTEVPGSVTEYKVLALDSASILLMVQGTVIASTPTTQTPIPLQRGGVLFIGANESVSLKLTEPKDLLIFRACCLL

[5] = viability inhibitors of stage V gametocytes – luminescence, dose response (AID 1117278); assay type: functional, cell-based;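 note: gametocytes exposed to compound for 24 hours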
[6] = viability loss in human Jurkat cells – cell-based, luminescence, cytotoxicity control for P. falciparum gametocyte viability project, dose response (AID 1117277); assay type: functional;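 note: potency reflects loss of cellular ATP meaning fewer viable cells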
[7] = viability of PTEN-deleted HCT116 cells – cell-based, HCT116 PTEN knockout, dose response (AID 1047); assay type: functional;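 note: HCT116 colon tumor cells with PTEN knocked out; cells exposed to compound for 60 hours before readout; potency for loss of cell viability measured by luminescence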
[8] = viability of HCT116 lacking mutant beta-catenin – cell-based, human colon tumor, dose response (AID 1045); assay type: functional;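 note: HCT116 colon tumor cells with beta catenin knocked out; cells exposed to compound for 60 hours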
[9] = Luminescence Cell-Based Dose Confirmation HTS to Identify Activators of 5'UTR Stem-Loop Driven Alpha-Synuclein mRNA Translation in H4 Neuroglioblastoma Cells. [Related pubchem assays: 1829 (Project Summary), 1814 (Primary HTS)]; assay type: functional
[10] = Luminescence Cell-Based Dose Response HTS to Identify Activators of Luciferase Translation or Activity in H4 […] Cells. [Related pubchem assays: 1829 (Project Summary), 1814 (Primary HTS)]; assay type: functional
H4 = test: Luminescence Cell-Based Dose Response HTS to Identify Activators of 5'UTR Stem-Loop Driven Prion Protein mRNA Translation in H4 Neuroglioblastoma Cells. [Related pubchem assays: 1829 (Project Summary), 1814 (Primary HTS)]; assay type: functional; settings: Homo sapiens
[11] = A549 cell cytotoxicity, dose response, cytotoxicity control, plate reader, cherry-pick, antagonist series (AID 743412); assay type: functional, cell-based
[12] = toxicity toward HepG2 liver cells – cell-based, plate reader, cherry-pick, antagonist series, cytotoxicity control, dose response (AID 743416); assay type: functional
[13] = blockade of melanocortin 4 receptor signaling – cell-based, plate reader, cherry pick, counter-screen for LGR2 antagonist project, dose response (AID 743444); assay type: functional;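 note: transfected HEK 293 cells stimulated with alpha-MSH peptide; potency of inhibitors of the alpha-MSH evoked signal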
[14] = growth inhibition of yeast DHODH-expressing 3D7 parasites – SYBR Green, dry powder samples, dose response (AID 1159570); assay type: functional, cell-based;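 note: parasite growth measured after 72 hours of compound exposure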
[15] = P. falciparum Dd2 growth inhibitors, dose response, SYBR Green, cherry-picked samples (AID 1159567); assay type: functional, cell-based
[16] = Dd2 malaria parasite growth inhibition potency – SYBR Green, dry powder samples, dose response (AID 1159566); assay type: functional, cell-based;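 note: potency for growth inhibition with lower SYBR green DNA signal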
[17] = growth inhibition of PfATP4-mutant resistant parasites – NITD609-resistant line, SYBR Green, dry powder, dose response (AID 1159571); assay type: functional, cell-based;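 note: parasites synchronized at ring stage by sorbitol before testing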
[18] = blockers of bursicon-stimulated LGR2 cAMP reporter – cell-based, HEK293, CRE-luciferase reporter, cherry pick, set 2, dose response (AID 743343); assay type: functional;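 note: transfected cells were stimulated with diluted bursicon conditioned medium after compound addition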
[19] = Trypanosoma cruzi growth suppression in host cells – NIH3T3 host cells, beta-gal luminescence, confirmation (AID 2044); assay type: functional, cell-based;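 note: intracellular parasites grown in NIH/3T3 mouse fibroblasts as host cells; luminescent beta-galactosidase reporter signal from transgenic T. cruzi replicating inside host cells; inhibitors lower the luminescence signal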
[20] = NIH3T3 cell viability loss – ATP luminescence, mouse fibroblasts, counter-screen, dose response (AID 2010); assay type: functional, cell-based;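 note: cells exposed to compound for about 90 hours before reading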
[21] = NIH-3T3 fibroblast cytotoxicity, dose response, cytotoxicity control, cell-based, fluorescence, Alamar Blue, secondary assay (AID 2327); assay type: functional;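 note: NIH-3T3 mouse fibroblasts cultured with fluconazole at 8 µg/mL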
[22] = fluconazole-exposed Candida albicans growth modulators – fluorescence, retest, confirmation (AID 2467); assay type: functional, cell-based
HeLa = test: ATP-based viability loss in HeLa cells – cell-based, CellTiter-Glo luminescence, cherry-pick samples, cytotoxicity control for MITF activator project, dose response (AID 540259); assay type: functional; settings: Homo sapiens
[23] = target: T3, Carboxy-terminal domain RNA polymerase II polypeptide A small phosphatase 1 (Homo sapiens, UniProt Q9GZU7); test: CTDSP1 inhibitors, concentration-response, biochemical, absorbance readout, ultra-high-throughput screen actives (AID 540297); assay type: functional
T3 sequence (Q9GZU7 whole entry): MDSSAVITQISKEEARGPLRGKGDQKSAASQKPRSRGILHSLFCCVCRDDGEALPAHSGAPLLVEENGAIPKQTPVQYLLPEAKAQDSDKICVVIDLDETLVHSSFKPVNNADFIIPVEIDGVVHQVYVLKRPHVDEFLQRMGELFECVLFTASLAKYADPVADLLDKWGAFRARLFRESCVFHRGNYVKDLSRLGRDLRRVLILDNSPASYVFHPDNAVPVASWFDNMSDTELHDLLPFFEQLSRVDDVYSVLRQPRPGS

Protein skinhead-1 = target: T4, Protein skinhead-1 (Caenorhabditis elegans, UniProt P34707); assay type: functional
T4 sequence (P34707 whole entry): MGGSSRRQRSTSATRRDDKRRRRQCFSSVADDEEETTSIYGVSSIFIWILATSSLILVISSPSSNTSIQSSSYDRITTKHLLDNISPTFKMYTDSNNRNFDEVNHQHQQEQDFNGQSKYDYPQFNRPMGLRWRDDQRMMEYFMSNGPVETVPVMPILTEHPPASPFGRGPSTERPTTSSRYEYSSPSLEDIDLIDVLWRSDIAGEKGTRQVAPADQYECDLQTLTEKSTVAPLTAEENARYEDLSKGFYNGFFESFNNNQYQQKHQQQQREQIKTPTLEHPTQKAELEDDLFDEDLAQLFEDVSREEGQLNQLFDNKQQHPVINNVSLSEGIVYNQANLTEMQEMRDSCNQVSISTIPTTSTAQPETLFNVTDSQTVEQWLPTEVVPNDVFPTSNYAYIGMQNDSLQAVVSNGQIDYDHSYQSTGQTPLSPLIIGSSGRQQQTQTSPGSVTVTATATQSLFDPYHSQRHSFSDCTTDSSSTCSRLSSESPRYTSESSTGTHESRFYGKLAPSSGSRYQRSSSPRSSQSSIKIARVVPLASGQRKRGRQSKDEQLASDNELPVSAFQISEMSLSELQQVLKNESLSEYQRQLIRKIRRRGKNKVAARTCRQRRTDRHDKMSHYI

[24] = blockers of HIV-1 envelope-mediated cell-cell fusion – cherry-pick, dose response (AID 652057); assay type: functional, cell-based
[25] = HIV-1 AD8 envelope cell-cell fusion blockers – cherry-pick, dose response (AID 652062); assay type: functional, cell-based;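 note: luciferase signal from cell-cell fusion driven by HIV-1 clade B AD8 Env; potency is for inhibitors of fusion seen as a drop in luminescence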

Induced myeloid leukemia cell differentiation protein Mcl-1, sequence (Q07820 whole entry): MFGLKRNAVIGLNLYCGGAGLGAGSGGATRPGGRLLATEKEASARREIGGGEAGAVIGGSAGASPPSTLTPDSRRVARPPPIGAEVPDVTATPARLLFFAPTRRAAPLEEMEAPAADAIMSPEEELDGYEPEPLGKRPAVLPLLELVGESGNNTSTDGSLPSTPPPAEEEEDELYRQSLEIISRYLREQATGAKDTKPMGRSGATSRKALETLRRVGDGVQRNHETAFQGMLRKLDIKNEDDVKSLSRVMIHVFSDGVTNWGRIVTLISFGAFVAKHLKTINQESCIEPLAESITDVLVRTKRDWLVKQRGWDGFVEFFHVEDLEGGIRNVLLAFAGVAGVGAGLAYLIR

With `Cc1c(O)ccc(/C=N/Nc2nc(-c3cccnc3)nc3ccccc23)c1O` the IC50 [1] was 6.03 µM (active).

In the case of `O=C(O)c1cccc(NC(=S)NC(=O)c2cccc(OCc3ccccc3)c2)c1`, the IC50 [2] is reported as > 66 µM (inactive) and the IC50 [3] is reported as > 66 µM (inactive).

With `CCOc1cc(S(=O)(=O)N2CCCCC2)ccc1Cl` the IC50 (Prothrombin) was > 50 µM (not active).

For `C/N=C(/c1ccco1)n1c(=S)nc(-c2ccco2)n(C)c1=S`, the IC50 [4] was > 50 µM (not active).

For `COc1ccc(OC)c(C2=NOC(C(=O)Nc3cc(C)on3)C2)c1` (centres undefined), the IC50 [5] was > 109 µM (inactive) and the IC50 [6] was > 83.4 µM (inactive).

In the case of `CCC(Oc1ccccc1)C(=O)NCc1ccc(S(N)(=O)=O)cc1` (centres undefined), the IC50 [5] is reported as > 109 µM (inactive) and the IC50 [6] is reported as > 83.3 µM (inactive).

For `c1cncc(-c2nnc(-c3cccnc3)nn2)c1`, the EC50 [7] was 9.23 µM (active), the EC50 [8] was 9.6 µM (active) and the IC50 [2] was > 66 µM (inactive). The IC50 [3] was > 66 µM (inactive).

For `Cc1cccn2cc(-c3ccc4c(c3)NC(=O)CO4)nc12`, the EC50 [9] was 7.24 µM (active), the EC50 [10] was 34.6 µM (active) and the EC50 (H4) was 7 µM (active). For the same compound, the IC50 [5] was > 109 µM (inactive) and the IC50 [6] was > 83.3 µM (inactive).

For `CC(=O)Nc1c(Nc2ccccc2)c2ccccc2oc1=O`, the IC50 [2] was > 66 µM (inactive) and the IC50 [3] was > 66 µM (inactive).

With `C[C@H]1CN([C@@H](C)CO)C(=O)c2cc(NC(=O)Nc3ccccc3)ccc2O[C@H]1CN(C)Cc1ccc(-c2ccccc2)cc1` the AC50 [11] was 24.2 µM (active), the AC50 [12] was > 52 µM (inactive) and the AC50 [13] was 39.4 µM (active).

In the case of `Cc1cc(N2CCN(c3ccccc3)CC2)nc(-c2ccccc2)n1`, the IC50 (Prothrombin) is reported as > 50 µM (not active).

With `CCN(CC)Cc1ccccc1Sc1ccccc1` the IC50 (Prothrombin) was > 50 µM (not active).

With `COc1ccc2c3c([nH]c2c1)[C@H](CO)NCC31CCN(C(=O)Nc2ccc3c(c2)OCO3)CC1` the AC50 [14] was 1.41 µM (active), the AC50 [15] was 0.914 µM (active) and the AC50 [16] was 0.49 µM (active). For the same compound, the AC50 [17] was 0.949 µM (active).

For `O=C1/C(=C/c2ccccn2)SC(=S)N1c1ccc(O)cc1`, the IC50 [1] was 5.85 µM (active).

For `CCOC(=O)N1CCN(C(=O)c2ccccc2N(C)S(C)(=O)=O)CC1`, the IC50 (Prothrombin) was > 50 µM (not active).

With `COCC(=O)n1nc(-c2ccccc2)nc1NCc1ccc(F)cc1` the IC50 (Prothrombin) was 0.103 µM (active).

With `O=C(CCc1nnc(CCCCc2ccccc2)o1)N1CCCC(O)C1` (centres undefined) the AC50 [11] was 0.513 µM (active), the AC50 [12] was > 52 µM (inactive) and the AC50 [18] was 3.63 µM (active). For the same compound, the AC50 [13] was 3.46 µM (active).

In the case of `O=C1OC(c2ccccc2)C2(CCCC2)C(=O)C12CCCC2` (centres undefined), the IC50 [5] is reported as > 109 µM (inactive) and the IC50 [6] is reported as > 83.3 µM (inactive).

With `CCc1c(C)sc(NC(=O)c2cc(C3CC3)on2)c1C#N` the IC50 [2] was > 66 µM (inactive) and the IC50 [3] was > 66 µM (inactive).

In the case of `Cc1cccc(NC(=O)c2cc3n(n2)C(C(F)(F)F)CC(C2CC2)N3)c1C` (centres undefined), the IC50 [5] is reported as > 109 µM (inactive) and the IC50 [6] is reported as > 83.3 µM (inactive).

With `N#C[C@@H]1[C@H](c2ccc(C#Cc3cccc(F)c3)cc2)[C@@H](CO)N1C(=O)C1CC1` the AC50 [11] was 24.4 µM (active), the AC50 [12] was 36.7 µM (active) and the AC50 [18] was 61.3 µM (active).

For `Oc1ccc(CNc2ccc(F)cc2)c2cccnc12`, the EC50 [19] was 5.56 µM (active), the EC50 [20] was > 60 µM (not active) and the IC50 [4] was 31 µM (active).

For `Cc1ccc(Nc2nc(Cl)nc(NC(C)(C)C)n2)cc1`, the EC50 [21] was > 160 µM (inactive), the EC50 [22] was 1.98 µM (active) and the AC50 (HeLa) was 159 µM (active).

For `O=C1C2C3C=CC(C2C(=O)N1c1cccc(O)c1)C1C2C(=O)N(c4cccc(O)c4)C(=O)C2C31` (centres undefined), the IC50 [1] was 9.49 µM (not active).

With `COCC(C)n1c(C)cc(C(=O)COC(=O)c2ccc3c(c2)NC(=O)CS3)c1C` (centres undefined) the IC50 [2] was > 66 µM (inactive) and the IC50 [3] was > 66 µM (inactive).

With `CCc1nnc(NC(=O)c2cc(-c3ccco3)nc3ccccc23)s1` the IC50 [1] was 3.18 µM (active) and the IC50 [23] was 4.01 µM (active).

With `CCN(Cc1ccncc1)Cc1c(O)ccc2ccccc12` the IC50 [4] was > 50 µM (not active).

With `Nc1cc(Nc2ccccc2)c2nonc2c1[N+](=O)[O-]` the IC50 [2] was > 66 µM (inactive) and the IC50 [3] was > 66 µM (inactive).

With `C(=C\c1nnc(-c2cccs2)o1)/c1ccccc1` the AC50 (HeLa) was 50.6 µM (active) and the IC50 (Protein skinhead-1) was 11.9 µM (active).

For `CC(C)c1ccc(-c2c(C#N)c(N)nc(SCC(=O)N3CCCCCC3)c2C#N)cc1`, the IC50 (Prothrombin) was > 50 µM (not active).

For `Cc1ccc(-c2ccc3c(c2)O[C@H](CN(C)Cc2ccncc2)[C@@H](C)CN([C@@H](C)CO)S3(=O)=O)cc1`, the AC50 [24] was 12.8 µM (active) and the AC50 [25] was 26.5 µM (active).
